The values that follow come from US10703761B2, “Bile acid receptor modulators and methods of use thereof” (City of Hope, priority 2016, dated 2020).

One data set deals with T1, FXR (Homo sapiens, UniProt Q96RI1).
T1 construct: expressed in transfected cells; host or cells: HEK293 (transient)
T1 sequence (Q96RI1 1-486): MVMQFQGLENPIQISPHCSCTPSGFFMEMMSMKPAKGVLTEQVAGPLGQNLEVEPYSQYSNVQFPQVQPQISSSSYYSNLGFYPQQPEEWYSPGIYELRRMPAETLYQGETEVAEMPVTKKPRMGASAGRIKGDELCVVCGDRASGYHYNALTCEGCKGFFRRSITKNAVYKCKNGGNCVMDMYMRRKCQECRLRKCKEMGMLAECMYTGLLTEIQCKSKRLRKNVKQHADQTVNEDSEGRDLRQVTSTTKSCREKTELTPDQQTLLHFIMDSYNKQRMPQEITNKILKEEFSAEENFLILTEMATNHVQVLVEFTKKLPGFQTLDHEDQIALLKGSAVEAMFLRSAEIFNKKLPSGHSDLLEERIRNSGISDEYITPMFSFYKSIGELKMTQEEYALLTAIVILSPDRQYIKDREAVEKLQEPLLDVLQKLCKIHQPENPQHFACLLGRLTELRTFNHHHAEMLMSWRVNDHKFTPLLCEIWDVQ
T1 sequence (P19793 1-462 partner): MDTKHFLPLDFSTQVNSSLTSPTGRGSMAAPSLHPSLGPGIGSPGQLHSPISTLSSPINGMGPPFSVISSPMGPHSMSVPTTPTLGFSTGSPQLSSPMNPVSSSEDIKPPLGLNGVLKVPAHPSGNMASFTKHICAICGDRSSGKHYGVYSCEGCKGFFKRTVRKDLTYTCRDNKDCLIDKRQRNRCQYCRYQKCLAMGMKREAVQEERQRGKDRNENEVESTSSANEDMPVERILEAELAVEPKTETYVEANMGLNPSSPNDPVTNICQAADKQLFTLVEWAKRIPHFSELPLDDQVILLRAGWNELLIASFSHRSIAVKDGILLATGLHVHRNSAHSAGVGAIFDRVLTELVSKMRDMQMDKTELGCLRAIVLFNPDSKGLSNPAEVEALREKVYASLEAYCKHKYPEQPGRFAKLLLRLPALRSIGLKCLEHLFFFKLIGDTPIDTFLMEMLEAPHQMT
Put plainly: FXR luciferase reporter assay, transient transfection with a synthetic FXR responsive reporter plasmid in HEK293 cells. Particulars: compound alone, compared with GW4064. The data set is classed as cell-based. How it is done:
Effect of berberine derivatives and γ-aminobutyric acid derivative on FXR inhibition was initially assessed using transient transfections with a synthetic FXR responsive reporter plasmid. HEK 293 Cells were treated with vehicle alone or 100 μM CDCA with or without compounds, as indicated. Results are luciferase expression normalized using the β-gal internal control.
TGR5-reporting activity was evaluated by luciferase assay. Treatments were performed in quadruplicate and normalized with β-galactosidase. HEK293 cells were transfected with FXR and RXRα, and FXRE-containing luciferase construct. Cells were treated with 10 μM of indicated compounds; luciferase was measured and normalized with β-galactosidase.
To evaluate TGR5 activity of compounds, cells were transfected 100 ng pCRE-luc reporter along with pCMV-galactosidase (10 ng) as an internal control for normalization of transfection efficiency. Plasmids were complexed with […] of Fugene 6 reagent (Promega, Madison, Wis.) in OptiMEM (Invitrogen, Carlsbad, Calif.) and cells were transfected for 18 h. The following day, cells were treated with vehicle and appropriate ligand as indicated. Luciferase and β-galactosidase activities were assayed 6 h later using Luciferase Assay System (Promega) and Galacto-Star (Applied Biosystems, Foster City, Calif.) reagents, respectively, and a MLX luminometer (Dynex Technologies, Chantilly, Va.). To evaluate the FXR activity of compounds, HEK293 cells were transfected with 25 ng of farnesoid X receptor expression plasmid (pCMX-hFXR), 25 ng of retinoid X receptor expression plasmid (pCMXhRXR), 100 ng of reporter plasmid (pEcREx6-TK-Luc), and 10 ng of pCMV-b-galactosidase as an internal control in each well, using Fugene 6 reagent. Approximately 18 h after transfection, cells were incubated for 12 h with different concentrations of each.
On the technique in general: In a reporter assay the amount or activity of a reporter protein is the signal.

In data set [1] the test system is metabolic nuclear receptors. Kind of data set: Activation of metabolic nuclear receptors compared with native ligands. The data set is classed as cell-based. Conditions: 10 μM. The procedure: FIG. 2(A) HEK293 cells lacking or overexpressing TGR5 were treated with increasing doses of berberine for 16 hours and TGR5-reporting activity was evaluated using luciferase assays. FIG. 2(B) Ability of berberine to activate metabolic nuclear receptors was evaluated in comparison to native ligands. All ligands were used at a 10 μM concentration.
Our current efforts are also aimed at extending these studies in vivo to murine type II diabetic models (using high fat diet feeding) with and without the TGR5 receptor. Confirmation of the berberine effect was evaluated using q-RT-PCR to assess activated TGR5 target genes including inflammatory gene expression and deiodinase-2.

For data set [2] the following is noted: in vivo; cited from earlier work.

Structures are written as SMILES.

For `COc1ccc2cc3[n+](cc2c1OC)CCc1cc2c(cc1-3)OCO2` [berberine], the figures for the “FXR activity of compound alone (agonism)” value at FXR and on FXR (listed as Berberine) were “failed to activate FXR” and “no effect on FXR activity”, respectively. Also, the “Activation of other metabolic nuclear receptors” value in data set [1] was “does not activate other metabolic nuclear receptors”. Moreover, the “Plasma concentration / gut restriction” value in data set [2] was “keeps low concentration in plasma”.
